According to patent US6436945B2, “Substituted O6-benzyl-8-aza-guanines” (The United States of America as represented by the of …, priority 1994, dated 2002):

Columns and labels:
[1] = tested on: DU-145 prostate cancer cells; experiment: Killing of DU-145 prostate cancer cells by BCNU combined with AGT inactivators (colony formation)
Method: (§1) Cells were treated for 2 h with AGT inactivator prior to exposure to BCNU.

[2] = tested on: MCF-71 breast cancer cells; experiment: Killing of MCF-71 breast cancer cells by BCNU combined with AGT inactivators (colony formation)
Method: as §1

[3] = tested on: HT-29 colon cancer cells; experiment: Killing of HT-29 colon cancer cells by BCNU combined with AGT inactivators (colony formation); conditions: for Colony Formation per 1000 cells: HT-29
Method: as §1

[4] = molecular target: T1, O^6-alkylguanine-DNA alkyltransferase (AGT) (Homo sapiens, UniProt P16455); experiment: AGT inactivation in HT29 cell-free extract; conditions: for AGT inactivating activity in HT29 cell-free extracts, in words: comparison
T1 sequence (P16455 1-207): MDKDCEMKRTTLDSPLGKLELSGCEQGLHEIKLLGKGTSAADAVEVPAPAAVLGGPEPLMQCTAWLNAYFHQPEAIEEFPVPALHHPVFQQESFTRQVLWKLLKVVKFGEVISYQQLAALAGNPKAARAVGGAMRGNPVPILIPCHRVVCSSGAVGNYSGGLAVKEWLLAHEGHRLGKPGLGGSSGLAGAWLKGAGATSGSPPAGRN
Method: (§2) The data represent the dose of compound required to produce 50% inactivation in cell-free extracts upon incubation for 30 min or in cells upon incubation for 4 hr.

[5] = molecular target: T1, O^6-alkylguanine-DNA alkyltransferase (AGT); experiment: AGT inactivation in intact HT29 cells; conditions: for ratio of ED50 values in cell-free extracts/intact cells: HT29; for AGT inactivating activity in intact HT29 cells, in words: comparison
Method: as §2

[6] = BCNU 40 μM, statement covers HT29, DU-145 and MCF-71 cells (Tables 3-5)

O=NN(CCCl)C(=O)NCCCl [BCNU, 1,3-bis(2-chloroethyl)-1-nitrosourea, reference compound]
Colony Formation per 1000 cells ([1]; no inactivator, BCNU 40 μM): 394 ± 76 per 1000 cells | Colony Formation per 1000 cells ([2]; no inactivator, BCNU 40 μM): 364 ± 60 per 1000 cells | Colony Formation per 1000 cells ([3]; no inactivator, BCNU 40 μM): 442 ± 34 per 1000 cells | effect of agent alone on cell colony number, in words ([3]; statement covers HT29, DU-145 and MCF-71 cells (Tables 3-5)): no significant effect on cell colony number

Nc1nc(OCc2ccccc2)c2nc(N)[nH]c2n1 [Compound 1a, 8-Amino-O^6-benzylguanine]
Colony Formation per 1000 cells ([1]; inactivator 1 μM, BCNU 40 μM): 295 ± 45 per 1000 cells | Colony Formation per 1000 cells ([1]; inactivator 10 μM, BCNU 40 μM): 435 ± 70 per 1000 cells | Colony Formation per 1000 cells ([1]; inactivator 10 μM, BCNU none): 380 ± 36 per 1000 cells | EC50 [4]: 0.7 µM | Colony Formation per 1000 cells ([2]; inactivator 10 μM, BCNU 40 μM): 95 ± 8 per 1000 cells | Colony Formation per 1000 cells ([2]; inactivator 10 μM, BCNU none): 432 ± 36 per 1000 cells | EC50 [5]: 2 µM | enhancement of BCNU cytotoxicity, in words [3, 6]: comparatively low activity | Colony Formation per 1000 cells ([3]; inactivator 1 μM, BCNU 40 μM): 475 ± 26 per 1000 cells | Colony Formation per 1000 cells ([3]; inactivator 10 μM, BCNU 40 μM): 430 ± 41 per 1000 cells | Colony Formation per 1000 cells ([3]; inactivator 10 μM, BCNU none): 504 ± 30 per 1000 cells

Cc1nc2c(OCc3ccccc3)nc(N)nc2[nH]1 [Compound 1b, O^6-benzyl-8-methylguanine]
Colony Formation per 1000 cells ([1]; inactivator 1 μM, BCNU 40 μM): 306 ± 157 per 1000 cells | Colony Formation per 1000 cells ([1]; inactivator 10 μM, BCNU 40 μM): 50 ± 7 per 1000 cells | Colony Formation per 1000 cells ([1]; inactivator 10 μM, BCNU none): 357 ± 43 per 1000 cells | EC50 [4]: 0.3 µM | Colony Formation per 1000 cells ([2]; inactivator 10 μM, BCNU 40 μM): 2 ± 1 per 1000 cells | Colony Formation per 1000 cells ([2]; inactivator 10 μM, BCNU none): 376 ± 76 per 1000 cells | EC50 [5]: 0.1 µM | Colony Formation per 1000 cells ([3]; inactivator 1 μM, BCNU 40 μM): 230 ± 51 per 1000 cells | Colony Formation per 1000 cells ([3]; inactivator 10 μM, BCNU 40 μM): <1 per 1000 cells | Colony Formation per 1000 cells ([3]; inactivator 10 μM, BCNU none): 513 ± 76 per 1000 cells

Nc1nc(OCc2ccccc2)c2[nH]c(=O)[nH]c2n1 [Compound 1c, O^6-Benzyl-8-oxoguanine]
Colony Formation per 1000 cells ([1]; inactivator 1 μM, BCNU 40 μM): 329 ± 43 per 1000 cells | Colony Formation per 1000 cells ([1]; inactivator 10 μM, BCNU 40 μM): 34 ± 3 per 1000 cells | Colony Formation per 1000 cells ([1]; inactivator 10 μM, BCNU none): 379 ± 34 per 1000 cells | EC50 [4]: 0.3 µM | Colony Formation per 1000 cells ([2]; inactivator 10 μM, BCNU 40 μM): 4 ± 2 per 1000 cells | Colony Formation per 1000 cells ([2]; inactivator 10 μM, BCNU none): 522 ± 78 per 1000 cells | EC50 [5]: 0.15 µM | Colony Formation per 1000 cells ([3]; inactivator 1 μM, BCNU 40 μM): 221 ± 15 per 1000 cells | Colony Formation per 1000 cells ([3]; inactivator 10 μM, BCNU 40 μM): <1 per 1000 cells | Colony Formation per 1000 cells ([3]; inactivator 10 μM, BCNU none): 401 ± 22 per 1000 cells

Nc1nc(OCc2ccccc2)c2nc(Br)[nH]c2n1 [Compound 1d, O^6-Benzyl-8-bromoguanine]
Colony Formation per 1000 cells ([1]; inactivator 1 μM, BCNU 40 μM): 267 ± 39 per 1000 cells | Colony Formation per 1000 cells ([1]; inactivator 10 μM, BCNU 40 μM): 16 ± 3 per 1000 cells | Colony Formation per 1000 cells ([1]; inactivator 10 μM, BCNU none): 493 ± 90 per 1000 cells | EC50 [4]: 0.08 µM | AGT inactivating activity in HT29 cell-free extracts, in words [4]: essentially as active as pyrimidines 3d and 3e | Colony Formation per 1000 cells ([2]; inactivator 10 μM, BCNU 40 μM): 3 ± 1 per 1000 cells | Colony Formation per 1000 cells ([2]; inactivator 10 μM, BCNU none): 380 ± 109 per 1000 cells | Colony Formation per 1000 cells ([2]; inactivator […], BCNU 40 μM): 4 ± 3 per 1000 cells | EC50 [5]: 0.06 µM | ratio of ED50 values in cell-free extracts/intact cells [5]: 1.6 | AGT inactivating activity in intact HT29 cells, in words [5]: somewhat less active in cells than expected | Colony Formation per 1000 cells ([3]; inactivator 1 μM, BCNU 40 μM): 299 ± 30 per 1000 cells | Colony Formation per 1000 cells ([3]; inactivator 10 μM, BCNU 40 μM): 1 ± 0 per 1000 cells | Colony Formation per 1000 cells ([3]; inactivator 10 μM, BCNU none): 401 ± 22 per 1000 cells

Nc1nc(OCc2ccccc2)c2nn[nH]c2n1 [Compound 2, 8-Aza-O^6-benzylguanine]
Colony Formation per 1000 cells ([1]; inactivator 1 μM, BCNU 40 μM): 248 ± 21 per 1000 cells | Colony Formation per 1000 cells ([1]; inactivator 10 μM, BCNU 40 μM): 28 ± 5 per 1000 cells | Colony Formation per 1000 cells ([1]; inactivator 10 μM, BCNU none): 452 ± 72 per 1000 cells | EC50 [4]: 0.07 µM | Colony Formation per 1000 cells ([2]; inactivator 10 μM, BCNU 40 μM): 2 ± 1 per 1000 cells | Colony Formation per 1000 cells ([2]; inactivator 10 μM, BCNU none): 483 ± 27 per 1000 cells | EC50 [5]: 0.06 µM | Colony Formation per 1000 cells ([3]; inactivator 1 μM, BCNU 40 μM): 423 ± 42 per 1000 cells | Colony Formation per 1000 cells ([3]; inactivator 10 μM, BCNU 40 μM): 2 ± 1 per 1000 cells | Colony Formation per 1000 cells ([3]; inactivator 10 μM, BCNU none): 537 ± 48 per 1000 cells

Nc1ncnc(OCc2ccccc2)c1[N+](=O)[O-] [Compound 3a, 4-Amino-6-benzyloxy-5-nitropyrimidine]
EC50 [4]: 28 µM | EC50 [5]: 8 µM

Nc1cc(OCc2ccccc2)nc(N)n1 [Compound 3b, 2,4-diamino-6-benzyloxypyrimidine]
EC50 [4]: 15 µM | EC50 [5]: 5 µM

Nc1nc(N)c([N+](=O)[O-])c(OCc2ccccc2)n1 [Compound 3e, 2,4-diamino-6-benzyloxy-5-nitropyrimidine]
Colony Formation per 1000 cells ([1]; inactivator 1 μM, BCNU 40 μM): 59 ± 6 per 1000 cells | Colony Formation per 1000 cells ([2]; inactivator […], BCNU 40 μM): 2 ± 1 per 1000 cells | enhancement of BCNU cytotoxicity, in words [3, 6]: similarly effective at a 4-fold lower dose | Colony Formation per 1000 cells ([3]; inactivator 1 μM, BCNU 40 μM): 45 ± 4 per 1000 cells | Colony Formation per 1000 cells ([3]; inactivator […], BCNU 40 μM): <1 per 1000 cells

Nc1nc(N)c(Br)c(OCc2ccccc2)n1 [Compound 3f, 2,4-Diamino-6-benzyloxy-5-bromopyrimidine]
EC50 [4]: 2 µM | AGT inactivating activity in HT29 cell-free extracts, in words [4]: considerably more active than 3b | EC50 [5]: 0.8 µM

O=c1nc(OCc2ccccc2)c2[nH]cnc2[nH]1 [Compound 4a, O^6-Benzylxanthine]
EC50 [4]: 60 µM | EC50 [5]: 35 µM

O=c1nc(OCc2ccccc2)c2[nH]c(=O)[nH]c2[nH]1 [Compound 4b, O^6-Benzyluric acid]
EC50 [4]: 25 µM | EC50 [5]: 45 µM

Fc1nc(OCc2ccccc2)c2nc[nH]c2n1 [Compound 4c, O^6-benzyl-2-fluorohypoxanthine]
EC50 [4]: 48 µM | EC50 [5]: 12 µM

CC(=O)Nc1nc(OCc2ccccc2)c2[nH]c(=O)[nH]c2n1 [Compound 4d, N^2-Acetyl-O^6-benzyl-8-oxoguanine]
EC50 [4]: 65 µM | EC50 [5]: 11 µM

CNc1nc(OCc2ccccc2)c2nc[nH]c2n1 [Compound 4e, O^6-Benzyl-N^2-methylguanine]
EC50 [4]: 160 µM | EC50 [5]: 60 µM

CN(C)c1nc(OCc2ccccc2)c2nc[nH]c2n1 [Compound 4f, O^6-Benzyl-N^2,N^2-dimethylguanine]
EC50 [4]: 200 µM | EC50 [5]: 110 µM

Nc1ncc([N+](=O)[O-])c(OCc2ccccc2)n1 [Compound 5a, 2-Amino-4-benzyloxy-5-nitropyrimidine]
EC50 [4]: 0.4 µM | AGT inactivating activity in HT29 cell-free extracts, in words [4]: much more active than 3a | EC50 [5]: 0.05 µM | AGT inactivating activity in intact HT29 cells, in words [5]: quite active in cells

Cc1nc(N)nc(OCc2ccccc2)c1[N+](=O)[O-] [Compound 5b, 2-Amino-4-benzyloxy-6-methyl-5-nitropyrimidine]
EC50 [4]: 0.4 µM | EC50 [5]: 0.06 µM | AGT inactivating activity in intact HT29 cells, in words [5]: quite active in cells

Nc1nc(N)nc(OCc2ccccc2)n1 [Compound 6, 2,4-Diamino-6-benzyloxy-s-triazine]
EC50 [4]: 4 µM | AGT inactivating activity in HT29 cell-free extracts, in words [4]: considerably more active than 3b | EC50 [5]: 1 µM

Cn1nnc2c(OCc3ccccc3)nc(N)nc21 [Compound 8a, 8-Aza-O^6-benzyl-9-methylguanine]
EC50 [4]: 0.5 µM | EC50 [5]: 0.08 µM | ratio of ED50 values in cell-free extracts/intact cells [5]: 6.3 | AGT inactivating activity in intact HT29 cells, in words [5]: significantly higher than their activity in cell-free extracts

Cn1c(Br)nc2c(OCc3ccccc3)nc(N)nc21 [Compound 10a, O^6-Benzyl-8-bromo-9-methylguanine]
EC50 [4]: 1.9 µM | EC50 [5]: 0.25 µM | ratio of ED50 values in cell-free extracts/intact cells [5]: 7.2 | AGT inactivating activity in intact HT29 cells, in words [5]: significantly higher than their activity in cell-free extracts
